From patent US20150342882A1, “METHODS OF TREATMENT USING CADOTRIL COMPOSITIONS” (Johnson & Johnson Consumer Inc., priority 2012, published 2015)
Converted amounts (≈) assume the structure as drawn.

Assay: Water solubility of racecadotril
Assay type: physicochemical
Details: room temperature conditions

- solubility: ~10 µg/mL (≈ 25.9 µM)
Compound: CC(=O)SCC(Cc1ccccc1)C(=O)NCC(=O)OCc1ccccc1 (racemic) [Racecadotril, (RS)-benzyl N-[3-(acetylthio)-2-benzylpropanoyl]glycinate]
